Assay results from PubChem BioAssay (NCI).
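Each compound was tested at five concentrations against cells in 96-well plates for 48 hours. TGI denotes the concentration required for complete inhibition of growth.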

Experiments:
Assay in all cases: DTP human tumour cell line panel, 48 h
ACHN renal = tested on: ACHN renal
OVCAR-5 ovarian = tested on: OVCAR-5 ovarian
SNB-75 CNS = tested on: SNB-75 CNS
LOX IMVI melanoma = tested on: LOX IMVI melanoma
MOLT-4 leukemia = tested on: MOLT-4 leukemia
RXF-631 renal = tested on: RXF-631 renal
UACC-257 melanoma = tested on: UACC-257 melanoma
NCI-H460 lung = tested on: NCI-H460 lung
M14 melanoma = tested on: M14 melanoma
A498 renal = tested on: A498 renal
HCT-15 colon = tested on: HCT-15 colon
K-562 leukemia = tested on: K-562 leukemia
OVCAR-4 ovarian = tested on: OVCAR-4 ovarian
LXFL 529 NSCLC = tested on: LXFL 529 NSCLC
786-0 renal = tested on: 786-0 renal
RPMI-8226 leukemia = tested on: RPMI-8226 leukemia
CAKI-1 renal = tested on: CAKI-1 renal
SR leukemia = tested on: SR leukemia
HCT-116 colon = tested on: HCT-116 colon
HOP-92 NSCLC = tested on: HOP-92 NSCLC
SK-MEL-28 melanoma = tested on: SK-MEL-28 melanoma
DMS 273 small cell lung = tested on: DMS 273 small cell lung
DLD-1 colon = tested on: DLD-1 colon
UO-31 renal = tested on: UO-31 renal
KM20L2 colon = tested on: KM20L2 colon
HL-60(TB) leukemia = tested on: HL-60(TB) leukemia
COLO 205 colon = tested on: COLO 205 colon
SF-539 CNS = tested on: SF-539 CNS
UACC-62 melanoma = tested on: UACC-62 melanoma
M19-MEL melanoma = tested on: M19-MEL melanoma
A549 NSCLC = tested on: A549 NSCLC
HT29 colon = tested on: HT29 colon
IGROV1 ovarian = tested on: IGROV1 ovarian
HOP-18 NSCLC = tested on: HOP-18 NSCLC
NCI-H226 lung = tested on: NCI-H226 lung
SK-MEL-5 melanoma = tested on: SK-MEL-5 melanoma
SW-620 colon = tested on: SW-620 colon
OVCAR-3 ovarian = tested on: OVCAR-3 ovarian
EKVX NSCLC = tested on: EKVX NSCLC
DMS 114 small cell lung = tested on: DMS 114 small cell lung
SN12C renal = tested on: SN12C renal
SF-268 CNS = tested on: SF-268 CNS
SNB-19 CNS = tested on: SNB-19 CNS
NCI-H23 lung = tested on: NCI-H23 lung
U251 CNS = tested on: U251 CNS
SF-295 CNS = tested on: SF-295 CNS
CCRF-CEM leukemia = tested on: CCRF-CEM leukemia
OVCAR-8 ovarian = tested on: OVCAR-8 ovarian
SK-MEL-2 melanoma = tested on: SK-MEL-2 melanoma
SK-OV-3 ovarian = tested on: SK-OV-3 ovarian
MALME-3M melanoma = tested on: MALME-3M melanoma
KM12 colon = tested on: KM12 colon
XF 498 CNS = tested on: XF 498 CNS
RXF 393 renal = tested on: RXF 393 renal
TK-10 renal = tested on: TK-10 renal
NCI-H522 lung = tested on: NCI-H522 lung
HOP-62 NSCLC = tested on: HOP-62 NSCLC
SNB-78 CNS = tested on: SNB-78 CNS

In the case of `O=C1c2ccccc2C2C1N2C(=O)C(F)(F)F` (centres undefined), the TGI (ACHN renal) is reported as > 100 µM, the TGI (OVCAR-5 ovarian) is reported as > 100 µM and the TGI (SNB-75 CNS) is reported as > 100 µM. The TGI (LOX IMVI melanoma) was > 100 µM, the TGI (MOLT-4 leukemia) was > 100 µM and the TGI (RXF-631 renal) was > 100 µM. For the same molecule, the TGI (UACC-257 melanoma) was > 100 µM, the TGI (NCI-H460 lung) was > 100 µM and the TGI (M14 melanoma) was > 100 µM. For the same molecule, the TGI (A498 renal) was > 100 µM, the TGI (HCT-15 colon) was > 100 µM and the TGI (K-562 leukemia) was > 100 µM. The TGI (OVCAR-4 ovarian) was > 100 µM, the TGI (LXFL 529 NSCLC) was > 100 µM and the TGI (786-0 renal) was > 100 µM. The TGI (RPMI-8226 leukemia) was > 100 µM, the TGI (CAKI-1 renal) was > 100 µM and the TGI (SR leukemia) was > 100 µM. For the same molecule, the TGI (HCT-116 colon) was > 100 µM, the TGI (HOP-92 NSCLC) was > 100 µM and the TGI (SK-MEL-28 melanoma) was > 100 µM. For the same molecule, the TGI (DMS 273 small cell lung) was > 100 µM, the TGI (DLD-1 colon) was > 100 µM and the TGI (UO-31 renal) was > 100 µM. For the same molecule, the TGI (KM20L2 colon) was > 100 µM, the TGI (HL-60(TB) leukemia) was 91.5 µM and the TGI (COLO 205 colon) was > 100 µM. For the same molecule, the TGI (SF-539 CNS) was > 100 µM, the TGI (UACC-62 melanoma) was > 100 µM and the TGI (M19-MEL melanoma) was > 100 µM. The TGI (A549 NSCLC) was > 100 µM, the TGI (HT29 colon) was > 100 µM and the TGI (IGROV1 ovarian) was > 100 µM. For the same molecule, the TGI (HOP-18 NSCLC) was > 100 µM, the TGI (NCI-H226 lung) was > 100 µM and the TGI (SK-MEL-5 melanoma) was > 100 µM. For the same molecule, the TGI (SW-620 colon) was > 100 µM, the TGI (OVCAR-3 ovarian) was > 100 µM and the TGI (EKVX NSCLC) was > 100 µM. The TGI (DMS 114 small cell lung) was > 100 µM, the TGI (SN12C renal) was > 100 µM and the TGI (SF-268 CNS) was > 100 µM. For the same molecule, the TGI (SNB-19 CNS) was > 100 µM, the TGI (NCI-H23 lung) was > 100 µM and the TGI (U251 CNS) was > 100 µM. The TGI (SF-295 CNS) was > 100 µM, the TGI (CCRF-CEM leukemia) was 70.9 µM and the TGI (OVCAR-8 ovarian) was > 100 µM. For the same molecule, the TGI (SK-MEL-2 melanoma) was > 100 µM, the TGI (SK-OV-3 ovarian) was > 100 µM and the TGI (MALME-3M melanoma) was > 100 µM. For the same molecule, the TGI (KM12 colon) was > 100 µM, the TGI (XF 498 CNS) was > 100 µM and the TGI (RXF 393 renal) was > 100 µM. The TGI (TK-10 renal) was > 100 µM, the TGI (NCI-H522 lung) was > 100 µM and the TGI (HOP-62 NSCLC) was > 100 µM.
`Cc1cc(C)nc(NS(=O)(=O)c2ccc(NC(=O)c3ccc(Cl)c4c(Nc5ccc(S(=O)(=O)Nc6nc(C)cc(C)n6)cc5)c5ccccc5nc34)cc2)n1` was tested, and the TGI (ACHN renal) was > 100 µM, the TGI (OVCAR-5 ovarian) was 32.4 µM and the TGI (SNB-75 CNS) was > 100 µM. The TGI (LOX IMVI melanoma) was > 100 µM, the TGI (MOLT-4 leukemia) was > 100 µM and the TGI (RXF-631 renal) was > 100 µM. The TGI (UACC-257 melanoma) was 81.6 µM, the TGI (NCI-H460 lung) was > 100 µM and the TGI (M14 melanoma) was 6.95 µM. For the same molecule, the TGI (A498 renal) was 57.4 µM, the TGI (HCT-15 colon) was > 100 µM and the TGI (K-562 leukemia) was 99 µM. For the same molecule, the TGI (OVCAR-4 ovarian) was 48.1 µM, the TGI (LXFL 529 NSCLC) was 61.2 µM and the TGI (786-0 renal) was 20.4 µM. For the same molecule, the TGI (RPMI-8226 leukemia) was > 100 µM, the TGI (CAKI-1 renal) was > 100 µM and the TGI (SNB-78 CNS) was > 100 µM. The TGI (HOP-92 NSCLC) was 5.93 µM, the TGI (SK-MEL-28 melanoma) was > 100 µM and the TGI (DMS 273 small cell lung) was > 100 µM. For the same molecule, the TGI (DLD-1 colon) was 84.2 µM, the TGI (UO-31 renal) was 57.4 µM and the TGI (KM20L2 colon) was 69.9 µM. For the same molecule, the TGI (HL-60(TB) leukemia) was 11 µM, the TGI (COLO 205 colon) was > 100 µM and the TGI (M19-MEL melanoma) was 8.28 µM. For the same molecule, the TGI (A549 NSCLC) was 86.1 µM, the TGI (HT29 colon) was > 100 µM and the TGI (IGROV1 ovarian) was > 100 µM. For the same molecule, the TGI (HOP-18 NSCLC) was 6.53 µM, the TGI (SK-MEL-5 melanoma) was 73.1 µM and the TGI (SW-620 colon) was > 100 µM. The TGI (OVCAR-3 ovarian) was > 100 µM, the TGI (EKVX NSCLC) was 88.8 µM and the TGI (DMS 114 small cell lung) was 8.54 µM. The TGI (SN12C renal) was > 100 µM, the TGI (SF-268 CNS) was > 100 µM and the TGI (SNB-19 CNS) was > 100 µM. The TGI (NCI-H23 lung) was 39.7 µM, the TGI (U251 CNS) was 21.9 µM and the TGI (SF-295 CNS) was > 100 µM. For the same molecule, the TGI (CCRF-CEM leukemia) was > 100 µM, the TGI (OVCAR-8 ovarian) was > 100 µM and the TGI (SK-MEL-2 melanoma) was > 100 µM. The TGI (SK-OV-3 ovarian) was 76.5 µM, the TGI (MALME-3M melanoma) was 53.5 µM and the TGI (KM12 colon) was > 100 µM. For the same molecule, the TGI (XF 498 CNS) was > 100 µM, the TGI (RXF 393 renal) was 4.83 µM and the TGI (TK-10 renal) was 83.1 µM. For the same molecule, the TGI (HOP-62 NSCLC) was > 100 µM.
